Assays:
[1] = Crystal; for vapor or sublimation pressure: Transpiration method
[2] = Molar enthalpy of transition or fusion; conditions: Crystal; DSC

CC(=O)c1ccc(N=C2SCC3CCCN2C3)cc1 (stereo unspecified)
[1]
Conditions | vapor or sublimation pressure [kPa]
370.15 K | 1.72e-05
372.15 K | 2.17e-05
373.15 K | 2.52e-05
374.15 K | 2.65e-05
375.15 K | 3.08e-05
377.15 K | 3.73e-05
379.15 K | 4.55e-05
381.15 K | 5.67e-05
383.15 K | 6.72e-05
385.15 K | 8.05e-05
387.15 K | 9.63e-05
389.15 K | 0.0001225
390.15 K | 0.0001287
391.15 K | 0.0001437
392.15 K | 0.0001637

Fc1ccc(N=C2[Se]CC3CCCN2C3)cc1 (stereo unspecified) [N-(4-fluorophenyl)-3-selena-1-azabicyclo[3.3.1]nonan-2-imine]
[1]
Conditions | Normal melting temperature [°C] | vapor or sublimation pressure [kPa]
344.15 K | – | 6.71e-05
346.15 K | – | 8.23e-05
348.15 K | – | 0.0001009
350.15 K | – | 0.0001254
352.15 K | – | 0.0001539
354.15 K | – | 0.0001821
357.15 K | – | 0.0002441
359.15 K | – | 0.0002956
360.15 K | – | 0.0003273
361.15 K | – | 0.00036
362.15 K | – | 0.0003964
363.15 K | – | 0.0004316
364.15 K | – | 0.0004719
365.15 K | – | 0.0005306
DTA | 103.1 | –

Conditions | Molar enthalpy of transition or fusion [kcal/mol]
[2] | 5.23

CC(C)c1ccc(N=C2SCC3CCCN2C3)cc1 (stereo unspecified)
[1]
Conditions | vapor or sublimation pressure [kPa]
308.15 K | 7.9e-06
310.15 K | 1.01e-05
311.15 K | 1.19e-05
313.15 K | 1.61e-05
314.15 K | 1.86e-05
315.15 K | 2.13e-05
316.15 K | 2.3e-05
317.15 K | 2.74e-05
318.15 K | 3.07e-05
319.15 K | 3.29e-05
320.15 K | 3.89e-05
322.15 K | 4.8e-05
323.15 K | 5.57e-05

N#Cc1ccc(N=C2SCC3CCCN2C3)cc1 (stereo unspecified)
[1]
Conditions | vapor or sublimation pressure [kPa]
341.15 K | 4.41e-05
343.15 K | 6.35e-05
345.15 K | 8.28e-05
347.15 K | 0.0001196
349.15 K | 0.0001553
351.15 K | 0.0002074
353.15 K | 0.0002772
354.15 K | 0.0002989
356.15 K | 0.0004234
358.15 K | 0.000541
360.15 K | 0.0007001
361.15 K | 0.0008286
